Like-named read-outs stand apart in the source and are kept apart here.
What was measured:
[1] = Mouse liver microsomes stability with NADPH
Procedure: (§1) The objective of this study was to estimate in vitro metabolic stability of 1-45 in pooled human and male mouse liver microsomes. The concentrations of exemplary compounds in reaction systems were evaluated by LC-MS/MS for estimating the stability in pooled human and male mouse liver microsomes. The in vitro intrinsic clearances of test compounds were determined as well.
(§2) A master solution in the “Incubation Plate” containing phosphate buffer, ultra-pure H2O, MgCl2 solution and liver microsomes was made according to Table --. The mixture was pre-warmed at 37° C. water bath for 5 minutes.
(§3) 40 μL of 10 mM NADPH solution was added to each well. The final concentration of NADPH was 1 mM. The negative control samples were prepared by replacing NADPH with 40 μL of ultra-pure H2O. Samples were prepared in duplicate. Negative controls were prepared in singlet.
(§4) The reaction was started with the addition of 4 μL of 200 μM test compounds or control compounds to each master solution to get the final concentration of 2 μM. This study was performed in duplicate.
(§5) Aliquots of 50 μL were taken from the reaction solution at 0, 15, 30, 45 and 60 minutes. The reaction solutions were stopped by the addition of 4 volumes of cold methanol with IS (100 nM alprazolam, 200 nM imipramine, 200 nM labetalol and 2 μM ketoprofen). Samples were centrifuged at 3,220 g for 40 minutes. Aliquot of 90 μL of the supernatant was mixed with 90 μL of ultra-pure H2O and then was used for LC-MS/MS analysis.
(§6) LC/MS analysis was performed for all samples from this study using a Shimadzu liquid chromatograph separation system equipped with degasser DGU-20A5R; solvent delivery unit LC-30AD; system controller SIL-30AC; column oven CTO-30A; CTC Analytics HTC PAL System. Mass spectrometric analysis was performed using an Triple Quad™ 5500 instrument.
(§7) All calculations were carried out using Microsoft Excel. Peak area ratios of test compound to internal standard (listed in the below table) were determined from extracted ion chromatograms.
(§8) All calculations were carried out using Microsoft Excel. Peak areas were determined from extracted ion chromatograms. The slope value, k, was determined by linear regression of the natural logarithm of the remaining percentage of the parent drug vs. incubation time curve.
(§9) Conversion of the in vitro t1/2 (min) into the in vitro intrinsic clearance (in vitro CLint, in μL/min/mg proteins) was done using the following equation (mean of duplicate determinations):
(§10) [formula] […] Results & Discussion

[2] = Human liver microsomes stability with NADPH
Procedure: as §1, §2, §3, §4, §5, §6, §7, §8, §9, §10

[3] = In vivo pharmacokinetics in male Sprague-Dawley rats; design: species or system rat; conditions: for AUC(0-t): read-out: AUC0-tlast; for MRT inf: read-out: MRT0-inf; for half-life: read-out: Apparent t1/2 (converted)
Procedure: Male C57BL/6 mice (25-30 g) and male Sprague-Dawley rats (250-325 g) from Charles River Labs were acclimatized for a minimum of 5 days prior to dosing. Body weights were recorded on the day of dosing.
Animals dosed p.o. were deprived of food overnight and fed ˜2 h following dosing.
Formulations were administered intravenously (i.v.) via the tail vein or orally (p.o.) by gavage with disposable feeding needles.
Serial blood samples were collected via tail snip. Terminal blood samples were collected under isoflurane anesthesia by cardiac puncture.
All blood samples were transferred into K2EDTA tubes on wet ice and centrifuged within 5 min (3200×g for 5 min at 4° C.) to obtain plasma. Plasma was stored at −80° C. until analysis.
Mouse or rat plasma, as applicable.
AB Sciex QTRAP 4000 or 6500 MS/MS system equipped with an LC system with a binary pump, a solvent degasser, a thermostated column compartment and a multiplate autosampler. i. Analysis software: Phoenix® WinNonlin® 8.2 (Pharsight, Certara, Mountainview, Calif.) ii. Analysis methods: non-compartmental analysis, linear up/log down trapezoidal rule iii. PK parameters: C0, t1/2, AUC0-tlast, AUC0-∞, CL, VSS, MRT, tmax(po), Cmax(po), F, as appropriate

[4] = p.o. 3.0 mg/kg per title (dose row prints 10)
[5] = rat, plasma, iv, i.v. 0.3 mg/kg
[6] = rat, plasma, po, p.o. 3.0 mg/kg per title (dose row prints 10)
[7] = rat, plasma, sc, s.c. 0.3 mg/kg

[2H]C([2H])([2H])N(C([2H])([2H])[2H])C([2H])([2H])C([2H])([2H])c1c[nH]c2cccc(O)c12 [Compound I-45, 3-(2-(bis(methyl-d3)amino)ethyl-1,1,2,2-d4)-1H-indol-4-ol]
Remaining Percentage (%) after 60 min ([1]; Mouse, with NADPH, 2 μM): 64.91% | half-life at 2 μM ([1]; male, mouse, microsomes): 1.6 h | microsomal CLint at 2 μM ([1]; male, mouse, microsomes): 14.4 µL/min/mg | Remaining Percentage (%) after 60 min ([2]; Human, with NADPH, 2 μM): 73.65% | half-life at 2 μM ([2]; human, microsomes): 2.27 h | microsomal CLint at 2 μM ([2]; human, microsomes): 10.2 µL/min/mg | AUC0-inf/Dose ([3]; i.v. 0.3 mg/kg): 181 ± 30.8 kg·ng·h/mL/mg | AUC(0-inf) ([3]; i.v. 0.3 mg/kg): 117 ± 11.5 ng·h/mL | Apparent t1/2 ([3]; i.v. 0.3 mg/kg): 34.6 ± 3.17 h | AUC0-inf/Dose [3, 4]: 181 ± 14.6 kg·ng·h/mL/mg | Cmax/Dose [3, 4]: 79.2 ± 24.4 kg·ng/mL/mg | clearance [3, 5]: 143 mL/min/kg | AUC(0-t) [3, 5]: 35.2 ± 3.45 ng·h/mL | MRT inf [3, 5]: 1.49 ± 0.536 h | Cmax [3, 6]: 238 ± 73.3 ng/mL | Tmax [3, 6]: 0.333 ± 0.144 h | bioavailability [3, 6]: 155 ± 12.4% | AUC(0-inf) ([3]; rat, plasma, po, p.o. 3.0 mg/kg per title (dose row prints 10), read-out: AUC0-inf): 543 ± 43.7 ng·h/mL | AUC(0-t) [3, 6]: 534 ± 38.7 ng·h/mL | half-life [3, 6]: 2.61 ± 0.795 h | MRT inf [3, 6]: 2.77 ± 0.486 h | Cmax [3, 7]: 30.2 ± 12.2 ng/mL | Tmax [3, 7]: 0.278 ± 0.21 h | bioavailability [3, 7]: 125 ± 30.4% | AUC(0-inf) ([3]; rat, plasma, sc, s.c. 0.3 mg/kg, read-out: AUC0-inf): 35.9 ± 8.71 ng·h/mL | AUC(0-t) [3, 7]: 32 ± 9.2 ng·h/mL | half-life [3, 7]: 0.647 ± 0.212 h | MRT inf [3, 7]: 0.991 ± 0.228 h | AUC0-inf/Dose ([3]; s.c. 0.3 mg/kg): 120 ± 29.0 kg·ng·h/mL/mg | Cmax/Dose ([3]; s.c. 0.3 mg/kg): 101 ± 40.7 kg·ng/mL/mg

Source: US11427604B2 (Mindset Pharma Inc., priority 2020, dated 2022)
